Eight compounds from ChEMBL document CHEMBL1149222, “Synthesis and in vitro antimycobacterial activity of novel 3-(1H-pyrrol-1-yl)-2-oxazolidinone analogues of PNU-100480” (2004) can be followed below.

Type in all cases: functional
The subject of experiment [1] is Mycobacterium tuberculosis. The experiment is described as follows: In vitro anti-mycobacterial activity against ethambutol resistant Mycobacterium tuberculosis ATCC 35837 determined by the MTT method.
The subject of experiment [2] is Mycobacterium tuberculosis. The experiment is described as follows: In vitro anti-mycobacterial activity against streptomycin resistant Mycobacterium tuberculosis ATCC 35820 determined by the MTT method.
Experiment [3] deals with Mycobacterium tuberculosis. Nature of the experiment: In vitro anti-mycobacterial activity against pirazynamide resistant Mycobacterium tuberculosis ATCC 35828 was determined.
The subject of experiment [4] is Mycobacterium tuberculosis. Nature of the experiment: In vitro anti-mycobacterial activity against pirazynamide resistant Mycobacterium tuberculosis ATCC 35828 determined by the MTT method.
Experiment [5] relates to Mycobacterium tuberculosis. The experiment is described as follows: In vitro anti-mycobacterial activity against ethambutol resistant Mycobacterium tuberculosis ATCC 35837 was determined.
Experiment [6] relates to Mycobacterium tuberculosis. Nature of the experiment: In vitro anti-mycobacterial activity against streptomycin resistant Mycobacterium tuberculosis ATCC 35820 was determined.

Values after ≈ are worked out from the molar mass of the structure shown.

With `CC(=O)NC[C@H]1CN(c2ccn(-c3cccc(F)c3)c2)C(=O)O1`, the figures for the MIC90 in experiment [1], in experiment [2] and in experiment [4] were 24.9 µM (≈ 7.9 µg/mL), over 100 µM and 63.9 µM (≈ 20.3 µg/mL), respectively. In addition, the MIC50 was 18.4 µM (≈ 5.84 µg/mL) in experiment [3], 7 µM (≈ 2.22 µg/mL) in experiment [5] and 0.9 µM (≈ 0.286 µg/mL) in experiment [6].

In the case of `CC(=O)NC[C@H]1CN(c2ccn(-c3ccccc3)c2)C(=O)O1`, the MIC90 in experiment [1] is 100 µM (≈ 29.9 µg/mL); in experiment [2] it was at least 100 µM; in experiment [4] it was over 100 µM. Besides, the values for the MIC50 in experiment [3], in experiment [5] and in experiment [6] were 50.3 µM (≈ 15.1 µg/mL), 23.8 µM (≈ 7.12 µg/mL) and 5.6 µM (≈ 1.68 µg/mL), respectively.

Regarding `CC(=O)NC[C@H]1CN(c2ccn(N3CCOCC3)c2)C(=O)O1`, the MIC50 in experiment [3], in experiment [5] and in experiment [6] was over 100 µM each time.

`CC(=O)NC[C@H]1CN(c2ccn(-c3ccccc3F)c2)C(=O)O1`: the MIC90 in experiment [1] amounted to 23.9 µM (≈ 7.58 µg/mL); in experiment [2] it was 45 µM (≈ 14.3 µg/mL); in experiment [4], 58.7 µM (≈ 18.6 µg/mL). In addition, the figures for the MIC50 in experiment [3], in experiment [5] and in experiment [6] were 10 µM (≈ 3.17 µg/mL), 7 µM (≈ 2.22 µg/mL) and 1.1 µM (≈ 0.349 µg/mL), respectively.

For `CC(=O)NC[C@H]1CN(c2ccn(-c3ccc(N4CCOCC4)c(F)c3)c2)C(=O)O1`, the MIC90 in experiment [2] and in experiment [4] was over 100 µM throughout. Moreover, the MIC50 in experiment [3] was over 100 µM; in experiment [5], 63.5 µM (≈ 25.6 µg/mL); in experiment [6], 4.9 µM (≈ 1.97 µg/mL).

In the case of `CC(=O)NC[C@H]1CN(c2ccn(-c3ccc(F)cc3)c2)C(=O)O1`, the MIC90 came out at 56.6 µM (≈ 18 µg/mL) in experiment [1], 39.9 µM (≈ 12.7 µg/mL) in experiment [2] and 73.7 µM (≈ 23.4 µg/mL) in experiment [4]. Besides, the MIC50 came to 21.5 µM (≈ 6.82 µg/mL) in experiment [3], 13.5 µM (≈ 4.28 µg/mL) in experiment [5] and 0.8 µM (≈ 0.254 µg/mL) in experiment [6].

As for `NNC(=O)c1ccncc1` [ISONIAZID], the MIC90 is 13 µM (≈ 1.78 µg/mL) in experiment [1], over 100 µM in experiment [2] and over 100 µM in experiment [4]. Also, the MIC50 in experiment [3] is 0.1 µM (≈ 0.0137 µg/mL); in experiment [5] it was 0.2 µM (≈ 0.0274 µg/mL); in experiment [6] it was 1.3 µM (≈ 0.178 µg/mL).

Regarding `CC(=O)NC[C@H]1CN(c2ccc(N3CCSCC3)c(F)c2)C(=O)O1` [SUTEZOLID], the MIC90 is 0.3 µM (≈ 0.106 µg/mL) in experiment [1], 0.4 µM (≈ 0.141 µg/mL) in experiment [2] and 0.7 µM (≈ 0.247 µg/mL) in experiment [4]. In addition, the MIC50 in experiment [3] is 0.1 µM (≈ 0.0353 µg/mL); in experiment [5], 0.06 µM (≈ 0.0212 µg/mL); in experiment [6], 5.6 µM (≈ 1.98 µg/mL).
